In US20050267182A1, “Urea derivatives as FLT-3 modulators” (Ambit Biosciences Corporation, priority 2003, published 2005):

Legend:
MV4,11 cells = assay: FLT3 assay using MV4,11 cells (cellular proliferation, MTS); format: cell-based, human; settings: cell assay code CS0001
Procedure, shortened: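 MV4,11 AML cells, […] switch to DMEM/10% FBS overnight, plated at 10,000 cells/well and exposed to serially diluted compounds in duplicate for 3 days at 37° C., 5% CO2. Proliferation read by MTS added for 2 h.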

CS0005 = assay: Cell Assay: CS0005; format: cell-based; settings: cell assay code CS0005
FLT3 = target: T1, FLT3 (Homo sapiens, UniProt P36888); assay: Binding constant (Kd) measurement, phage-displayed kinase competition binding assay; settings: for Binding Assay: FLT3(DKIN): FLT3(DKIN) construct; for Binding Assay: FLT3(JMminus): FLT3(JMminus) construct
T1 construct: FLT3(DKIN); made in house
T1 sequence (P36888 610-943 limits assumed): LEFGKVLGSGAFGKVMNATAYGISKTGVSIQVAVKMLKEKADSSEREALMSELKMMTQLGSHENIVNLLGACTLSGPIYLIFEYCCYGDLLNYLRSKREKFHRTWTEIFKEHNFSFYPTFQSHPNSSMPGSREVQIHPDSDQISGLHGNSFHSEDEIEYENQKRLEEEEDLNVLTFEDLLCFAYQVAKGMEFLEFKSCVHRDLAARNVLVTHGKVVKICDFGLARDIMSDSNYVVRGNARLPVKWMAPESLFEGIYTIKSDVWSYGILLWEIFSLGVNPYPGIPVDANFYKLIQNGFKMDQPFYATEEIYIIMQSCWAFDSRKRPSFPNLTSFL
Excerpt: Binding Constant (Kd) Measurements for Small-Molecule-Kinase Interactions
The term “ND” represents non-determined values.

CS0002 = assay: Cell Assay: CS0002; format: cell-based; settings: cell assay code CS0002

| Structure (SMILES) | Cell Assay: CS0001:IC50 (MV4,11 cells) | Cell Assay: CS0005:IC50 (CS0005) | Binding Assay: FLT3(DKIN) (FLT3) | IC50 (CS0002) | Cell Assay: CS0002:IC50 (CS0002) | Binding Assay: FLT3(JMminus) (FLT3) | Binding Assay: FLT3(JMplus) (FLT3; FLT3(JMplus) construct) |
| --- | --- | --- | --- | --- | --- | --- | --- |
| CC(C)(C)c1cc(NC(=O)Nc2ccc(NC(=O)c3cnccn3)cc2)no1 [Compound N136] | + + + + | + + + + | + + + + | > 10 µM | – | – | – |
| COc1cc(C(=O)Nc2ccc(NC(=O)Nc3cc(C(C)(C)C)on3)cc2)nc2ccccc12 [Compound N137] | + + + + | + + + | + + + + | – | + + | – | – |
| CC(C)(C)c1cc(NC(=O)Nc2ccc(NC(=O)c3ccc4ccccc4n3)cc2)no1 [Compound N143] | + + + + | + + + + | + + + + | – | + + | – | – |
| CC(C)(C)c1cc(NC(=O)Nc2ccc(NC(=O)c3cnnc4ccccc34)cc2)no1 [Compound N147] | + + + + | + + + + | + + + + | – | + + | – | – |
| CC(C)(C)c1cc(NC(=O)Nc2ccc(NC(=O)c3ccc4ncccc4c3)cc2)no1 [Compound N151] | + + + + | + + + + | + + + + | > 10 µM | – | – | – |
| CC(C)(C)c1cc(NC(=O)Nc2ccc(C(=O)Nc3nccnc3N)cc2)no1 [Compound N157] | + + + + | + + + + | – | > 10 µM | – | + + + + | – |
| CN(C)c1ccc(C(=O)Nc2ccc(NC(=O)Nc3cc(C(C)(C)C)on3)cc2)cn1 [Compound N159] | + + + + | + + + + | – | – | + + | + + + + | – |
| Cc1cnc(C(=O)Nc2ccc(NC(=O)Nc3cc(C(C)(C)C)on3)cc2)c(C(=O)O)n1 [Compound N160] | + + + + | + + + + | – | > 10 µM | – | + + + + | – |
| CC(C)(C)c1cc(NC(=O)Nc2ccc(NC(=O)c3cc4ccccc4[nH]3)cc2)no1 [Compound N161] | + + + + | + + + + | – | – | + + | + + + + | – |
| COc1cc(C(=O)Nc2ccc(NC(=O)Nc3cc(C(C)(C)C)on3)cc2)nc(OC)n1 [Compound N162] | + + + + | + + + + | – | – | + + | + + + + | – |
| Cc1nc(-c2ccc(C(=O)Nc3ccc(NC(=O)Nc4cc(C(C)(C)C)on4)cc3)s2)cs1 [Compound N173] | + + + + | + + + + | + + + + | > 10 µM | – | – | – |
| CC(C)(C)c1cc(NC(=O)Nc2ccc(NC(=O)c3ccccn3)cc2)no1 [Compound N188] | + + + + | + + + + | + + + + | > 10 µM | – | + + + + | + + + |
| COc1cc2nc(Cl)nc(Nc3ccc(NC(=O)Nc4cc(C(C)(C)C)on4)cc3)c2cc1OC [Compound O1, 1-(4-(2-chloro-6,7-dimethoxyquinazolin-4-ylamino)phenyl)-3-(5-tert-butylisoxazol-3-yl)urea] | + + + + | + + + + | + + + + | – | + + | – | – |
| Cc1cnc(C(=O)Nc2ccc(NC(=O)Nc3cc(C(C)(C)C)on3)cc2)cn1 [Compound O2] | + + + + | + + + + | + + + + | > 10 µM | – | – | – |
| CC(C)(C)c1cc(NC(=O)Nc2ccc(Nc3ncnc4[nH]cnc34)cc2)no1 [Compound O3] | + + + + | + + + + | + + + + | – | + + | – | – |
| CC(C)(C)c1cc(NC(=O)Nc2ccc(Nc3nc(Cl)nc4[nH]cnc34)cc2)no1 [Compound O4] | + + + + | + + + + | + + + + | – | + + | – | – |
| COc1cc2ncnc(Nc3ccc(NC(=O)Nc4cc(C(C)(C)C)on4)cc3)c2cc1OC [Compound O5] | + + + + | + + + + | + + + + | – | + + | – | – |
| CC(C)(C)c1cc(NC(=O)Nc2ccc(Nc3nc(N)nc4[nH]cnc34)cc2)no1 [Compound O6] | + + + + | + + + + | + + + + | > 10 µM | – | – | – |
| CC(C)(C)c1cc(NC(=O)Nc2ccc(-c3nc(-c4cccc5ccccc45)no3)cc2)no1 [Compound P5] | + + + + | + + + | + + + + | > 10 µM | – | – | – |
| CC(C)(C)c1cc(NC(=O)Nc2ccc(-c3nc(-c4ccc(Cl)cc4)no3)cc2)no1 [Compound P7] | + + + + | + + + | + + + + | > 10 µM | – | – | – |
